Reference: patent US20220257706A1, “EPIDERMAL GROWTH FACTOR RECEPTOR (EGFR) LIGANDS” (NANYANG TECHNOLOGICAL UNIVERSITY, priority 2019, published 2022)
Like-named read-outs stand apart in the source and are kept apart here.

Key:
HaCaT cells [1] = assay type: cell-based, human; conditions: for mitogenic effect compared with bleogen pB1: 1 μM, crystal violet assay; for EGFR dependence of proliferative/mitogenic effect: co-incubation with EGFR neutralizing antibody (clone LA1)
Procedure: HaCaT (human keratinocyte), HUVEC-CS (endothelial cells) cells were cultured in Dulbecco's modification of Eagle's medium (DMEM) supplemented with 10% fetal bovine serum and 100 U/mL of penicillin and streptomycin. Normal Human Epidermal Keratinocytes adult purchased from Lifeline® cell technology were cultured in Lifeline® DermaLife K Medium. They were grown in a 5% CO2 humidified incubator at 37° C. HaCaT cells were stably transfected with pGL4.33[luc2P/SRE/Hygro] (Promega) and selected using 250 μg/mL hygromycin. Stable HaCaT cells expressing SRE luciferase reporter were maintained with 250 μg/mL hygromycin.
Cell proliferation was determined using crystal violet staining. […] 3417-Da-peptide aB1 is a CRP isolated from Achyranthes bidentata with the amino acid sequence […] (SEQ ID NO:11). Crystal violet staining was performed as previously described. Briefly, after the incubation period, the wells were fixed with 4% buffered paraformaldehyde for 20 min. The cells were then stained with 0.25% crystal violet in 20% methanol for 15 min. The excess crystal violet stain was rinsed with distilled water for 4-5 times and air-dried. Glacial acetic acid (10%) in Milli-Q water was added to extract the crystal violet stain. The absorbance was then measured at 595 nm using a microplate reader (Tecan Infinite® 200 Pro, Switzerland).

[2] = system: pepsin, trypsin, pronase, human neutrophil elastase; assay: Proteolytic stability against a panel of proteases; conditions: disulfide bridges reduced and S-alkylated by iodoacetamide
Procedure: (§3) Samples were collected at various time points.
(§4) All collected samples from various stability assays were analyzed by RP-HPLC with a linear gradient of mobile phase A (0.05% TFA/H2O) and mobile phase B (0.05% TFA/ACN) on aeris peptide XB-C18 column (Phenomenex, US). The resulting peaks were collected and identified by MALDI-TOF MS. The results were expressed as percentage of initial concentration using the peak area of the HPLC profile.

[3] = system: pepsin, trypsin, pronase, human neutrophil elastase; assay: in vitro
Procedure: as §3, §4

EGFR = EGFR (Homo sapiens, UniProt P00533); assay: TR-FRET EGFR ligand binding assay (competitive displacement of biotin-EGF); parameters: purchased PerkinElmer
EGFR, sequence (P00533 25-645 limits assumed): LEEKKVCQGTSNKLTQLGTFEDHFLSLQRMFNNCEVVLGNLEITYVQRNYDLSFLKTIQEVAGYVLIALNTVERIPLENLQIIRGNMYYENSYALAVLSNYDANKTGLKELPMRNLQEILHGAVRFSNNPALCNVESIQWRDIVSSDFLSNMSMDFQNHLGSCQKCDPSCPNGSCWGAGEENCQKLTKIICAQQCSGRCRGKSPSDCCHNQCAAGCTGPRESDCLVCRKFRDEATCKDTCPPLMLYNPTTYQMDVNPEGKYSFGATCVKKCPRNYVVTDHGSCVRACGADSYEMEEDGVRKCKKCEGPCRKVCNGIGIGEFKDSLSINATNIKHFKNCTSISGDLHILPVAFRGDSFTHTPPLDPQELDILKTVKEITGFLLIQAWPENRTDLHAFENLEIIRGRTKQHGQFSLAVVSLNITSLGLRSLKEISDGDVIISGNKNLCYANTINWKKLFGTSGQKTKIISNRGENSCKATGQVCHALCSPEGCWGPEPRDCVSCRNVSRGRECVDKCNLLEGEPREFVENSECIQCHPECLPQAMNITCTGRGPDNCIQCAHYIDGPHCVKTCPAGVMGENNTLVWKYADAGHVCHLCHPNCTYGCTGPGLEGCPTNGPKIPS
Procedure: TR-FRET ratio was measured using a microplate reader in dual emission mode (Excitation: 340 nm, emission: 665 nm and 615 nm) (Cytation 1, US). […] (SEQ ID NO:11) or roseltide rT7 with an amino acid sequence of […] (SEQ ID NO:17) were used as negative control.

[4] = system: STZ-induced diabetic C57BL/6 mice; assay: Full-thickness splinted excisional wound healing in streptozotocin-induced diabetic C57BL/6 mice; assay type: in vivo, mouse; conditions: 1 nmol/wound topical, five consecutive days
Procedure: (§1) Full-thickness 5-mm splinted excisional wounding of mice was performed. Briefly, mice were anesthetized using an intraperitoneal injection of sodium pentobarbital (50 mg kg^−1). The hair of the back was shaved with an electric clipper followed by a depilatory cream. Using a 5-mm-diameter sterile biopsy punch, symmetrical full-thickness excisional wounds were created. Splints were placed around the wound using adhesive glue and secured with four interrupted sutures. The wounds and splints were covered with Tegaderm (3M, US). At indicated days within the 14 days post-injury course, wound diameters were measured. The size of wound was calculated from the average of two diameter measurements along the x and y axis.
Diabetes was induced into C57BL/6 mice by two intraperitoneal injection (80 mg/kg) of STZ at day 1 and 5. Starting from day 8, blood glucose was monitored regularly for two weeks. […] Blood glucose was also monitored at day 14 post-injury to ensure the mice are diabetic.

physchem = conditions: buffer
Procedure: as §3, §4

[5] = Heat stability (100° C., RP-HPLC); assay type: physicochemical
Procedure: Samples were collected at various time points (0, 30, 60, and 120 min).

C57BL/6 mice = assay: Full-thickness splinted excisional wound healing in C57BL/6 mice; assay type: in vivo, mouse; conditions: topical, three consecutive days; bleogen pB1 10 nmol/wound, EGF 1 nmol/wound; vs saline
Procedure: C57BL/6 mice were obtained from Vital Rital Laboratories (Beijing, China). […] All experiments were approved and performed in accordance with the institutional guidelines of the Experimental Animal Center of the Chinese Academy of Medical Science (Beijing, China).
as §1
Full-thickness 5 mm splinted excisional wounding of mice was performed on C57BL/6 mice as described above.

c-Jun = assay: Gene expression analysis (qPCR) of c-Jun in HaCaT cells; assay type: cell-based, human; conditions: 2 h treatment
Procedure: (§2) Total RNA was extracted from HaCaT and primary human keratinocytes using PureLink™ RNA mini kit (Thermo Fisher Scientific, US). First-strand cDNA was synthesised from 600 ng of total RNA using SuperScript™ II Reverse Transcriptase and Oligo(dT)12-18 (Thermo Fisher Scientific, US) according to the manufacturer's instructions. Quantitative PCR (qPCR) was performed with iTaq Universal SYBR Green Supermix (Bio-Rad, US) on a CFX96 Touch Real-Time PCR Detection System (Bio-Rad, US) for 40 cycles. PCR reaction (20 μL): 3 μL cDNA, 1 μL primer mix (10 μM), 6 μL DEPC-treated water and 10 μL mastermix. […] GAPDH was used as a housekeeping gene for normalization. Fold changes of gene expressions with c-fos and c-Jun were calculated using the 2^−ΔΔCT method.

c-fos = assay: Gene expression analysis (qPCR) of c-fos in HaCaT cells; assay type: cell-based, human; conditions: 2 h treatment
Procedure: as §2

HUVEC-CS cells = assay: Endothelial tube formation assay; assay type: cell-based; conditions: data not shown
Procedure: Endothelial tube formation assay was performed using a μ-slide (ibidi, Germany). Briefly, 10 μL of gel matrix (BD Matrigel™ Basement Membrane Matrix) was casted onto each μ-slide well and left to solidify. […] After incubation for 2 h, the wells were photographed using inverted phase-contrast microscope. Images were analyzed for the numbering of branching points using the Wimasis image analysis platform.

HaCaT cells [6] = assay: Cell migration scratch assay; assay type: cell-based, human; conditions: data not shown
Procedure: Cell migration was monitored using the scratch assay. Briefly, HaCaT cells were seeded into 2 well silicone inserts with a defined gap of 500 μm (ibidi, Germany). […] After incubation for 8 h, the wells were photographed using inverted phase-contrast microscope. Images were analyzed for the percentage of cell-free area using the Wimasis image analysis platform.

newborn ICR mice = assay: Newborn mice model for incisor eruption; assay type: in vivo, mouse; conditions: 3 mg/kg subcutaneous, five consecutive days; saline control 153 h
Procedure: ICR mice were obtained from Vital Rital Laboratories (Beijing, China). […] All experiments were approved and performed in accordance with the institutional guidelines of the Experimental Animal Center of the Chinese Academy of Medical Science (Beijing, China). Subcutaneous injections were made for five consecutive days in the nape of the neck of the newborn mice starting from the day of birth (day 0). […] Incisor eruption was recorded daily by visual inspection. Incisor eruption was defined as the time at which a given tooth first pierced the oral epithelium.

With `COc1cc2ncnc(Nc3cccc(Cl)c3)c2cc1OC` [AG1478, reference compound] the “effect of co-incubation on bleogen pB1-induced HaCaT cell proliferation” value (HaCaT cells [1]; serum-free medium, 72 h) was “substantially inhibited”.

In the case of `CC[C@H](C)[C@H](NC(=O)[C@H](CCC(=O)O)NC(=O)[C@@H](NC(=O)[C@H](CSCC(N)=O)NC(=O)[C@H](CCCCN)NC(=O)[C@H](C)NC(=O)CNC(=O)[C@H](CC(N)=O)NC(=O)[C@@H]1CCCN1C(=O)[C@H](CCCCN)NC(=O)[C@H](CSCC(N)=O)NC(=O)[C@@H](N)CCC(N)=O)[C@@H](C)O)C(=O)N[C@@H](CO)C(=O)N[C@H](C(=O)N1CCC[C@H]1C(=O)N1CCC[C@H]1C(=O)N[C@@H](CSCC(N)=O)C(=O)N[C@@H](CSCC(N)=O)C(=O)N[C@@H](CO)C(=O)N[C@@H](CC(N)=O)C(=O)N[C@@H](Cc1ccccc1)C(=O)N[C@@H](CSCC(N)=O)C(=O)N[C@@H](CC(C)C)C(=O)N[C@@H](CCCNC(=N)N)C(=O)N[C@@H](Cc1ccc(O)cc1)C(=O)N[C@@H](C)C(=O)NCC(=O)N[C@@H](CCC(N)=O)C(=O)N[C@@H](CCCCN)C(=O)N[C@@H](CO)C(=O)NCC(=O)N[C@H](C(=O)N[C@@H](CSCC(N)=O)C(=O)N[C@@H](C)C(=O)N[C@@H](CC(N)=O)C(=O)N[C@@H](CCCNC(=N)N)C(=O)O)[C@@H](C)O)[C@@H](C)CC` [S-alkylated bleogen pB1, reference compound], the “degradation by proteases (time)” value [2] is reported as “within a couple of minutes”.

In the case of `N#CC(=C(/N)Sc1ccccc1N)/C(C#N)=C(\N)Sc1ccccc1N` [U0126, reference compound], the “effect of co-incubation on bleogen pB1-induced HaCaT cell proliferation” value (HaCaT cells [1]) is reported as “substantially inhibited”.

For `CC[C@H](C)[C@@H]1NC(=O)[C@H](CCC(=O)O)NC(=O)[C@H]([C@@H](C)O)NC(=O)[C@@H]2CSSC[C@@H]3NC(=O)[C@H](Cc4ccccc4)NC(=O)[C@H](CC(N)=O)NC(=O)[C@H](CO)NC(=O)[C@H](CSSC[C@H](NC(=O)[C@@H](N)CCC(N)=O)C(=O)N[C@@H](CCCCN)C(=O)N4CCC[C@H]4C(=O)N[C@@H](CC(N)=O)C(=O)NCC(=O)N[C@@H](C)C(=O)N[C@@H](CCCCN)C(=O)N2)NC(=O)[C@H](CSSC[C@@H](C(=O)N[C@@H](C)C(=O)N[C@@H](CC(N)=O)C(=O)N[C@@H](CCCNC(=N)N)C(=O)O)NC(=O)[C@H]([C@@H](C)O)NC(=O)CNC(=O)[C@H](CO)NC(=O)[C@@H](CCCCN)NC(=O)[C@H](CCC(N)=O)NC(=O)CNC(=O)[C@H](C)NC(=O)[C@H](Cc2ccc(O)cc2)NC(=O)[C@H](CCCNC(=N)N)NC(=O)[C@H](CC(C)C)NC3=O)NC(=O)[C@@H]2CCCN2C(=O)[C@@H]2CCCN2C(=O)[C@H]([C@@H](C)CC)NC(=O)[C@H](CO)NC1=O` [[K29k]pB1], the “mitogenic effect compared with bleogen pB1” value (HaCaT cells [1]; 72 h) was “more mitogenic than bleogen pB1”, the “EGFR dependence of proliferative/mitogenic effect” value (HaCaT cells [1]) was “EGFR-dependent” and the half-life at 0.1 M [3] was > 500 min. The “EGFR affinity / EGF-like biological activity compared with bleogen pB1 (EGFR displacement)” value (EGFR) was “higher affinity than bleogen pB1”, the “potency relative to bleogen pB1 (fold more potent)” value (EGFR) was “approximately 60 fold” and the IC50 (EGFR; TR-FRET, mean±S.D., three independent experiments, read-out: IC50, displacement of biotin-EGF from EGFR) was 27 ± 0.05 nM. For the same molecule, the “EGFR affinity / EGF-like biological activity compared with bleogen pB1 (EGFR displacement)” value (EGFR; listed as K29k pB1) was “increased EGF-like biological activities”, the “potency relative to bleogen pB1 (fold more potent)” value (EGFR; listed as K29k pB1) was 60 fold and the “wound closure compared with EGF and bleogen pB1 in STZ-diabetic mice” value [4] was “at a similar rate as EGF, and much faster than bleogen pB1”. For the same molecule, the “wound healing rate vs vehicle control in STZ-induced diabetic mice” value [4] was “healed at a significantly faster rate starting from day 4 post-injury”, the “wound closure compared with EGF and bleogen pB1 in STZ-diabetic mice” value ([4]; listed as K29k pB1) was “comparable” and the half-life at 0.1 M (physchem) was > 500 min. For the same molecule, the half-life at 0.1 M [5] was > 500 min.

For `CC[C@H](C)[C@@H]1NC(=O)[C@H](CCC(=O)O)NC(=O)[C@H]([C@@H](C)O)NC(=O)[C@@H]2CSSC[C@@H]3NC(=O)[C@H](Cc4ccccc4)NC(=O)[C@H](CC(N)=O)NC(=O)[C@H](CO)NC(=O)[C@H](CSSC[C@H](NC(=O)[C@@H](N)CCC(N)=O)C(=O)N[C@@H](CCCCN)C(=O)N4CCC[C@H]4C(=O)N[C@@H](CC(N)=O)C(=O)NCC(=O)N[C@@H](C)C(=O)N[C@@H](CCCCN)C(=O)N2)NC(=O)[C@H](CSSC[C@@H](C(=O)N[C@@H](C)C(=O)N[C@@H](CC(N)=O)C(=O)N[C@@H](CCCNC(=N)N)C(=O)O)NC(=O)[C@H]([C@@H](C)O)NC(=O)CNC(=O)[C@H](CO)NC(=O)[C@H](CCCCN)NC(=O)[C@H](CCC(N)=O)NC(=O)CNC(=O)[C@H](C)NC(=O)[C@@H](Cc2ccc(O)cc2)NC(=O)[C@H](CCCNC(=N)N)NC(=O)[C@H](CC(C)C)NC3=O)NC(=O)[C@@H]2CCCN2C(=O)[C@@H]2CCCN2C(=O)[C@H]([C@@H](C)CC)NC(=O)[C@H](CO)NC1=O` [[Y25y]pB1], the “mitogenic effect compared with bleogen pB1” value (HaCaT cells [1]; 72 h) was “more mitogenic than bleogen pB1”, the “EGFR dependence of proliferative/mitogenic effect” value (HaCaT cells [1]) was “EGFR-dependent” and the “EGFR affinity / EGF-like biological activity compared with bleogen pB1 (EGFR displacement)” value (EGFR) was “higher affinity than bleogen pB1”. The IC50 (EGFR) was 580 ± 0.089 nM and the “EGFR affinity / EGF-like biological activity compared with bleogen pB1 (EGFR displacement)” value (EGFR; listed as Y25y pB1) was “increased EGF-like biological activities”.

In the case of “EGF: epidermal growth factor, SEQ ID NO:10, positive control”, the “wound healing, full-thickness excision wound model in C57 mice” value (C57BL/6 mice) is reported as “accelerated wound healing from day 3 to day 11”, the “mRNA expression of c-Jun” value (c-Jun) is reported as “significantly upregulate” and the “mRNA expression of c-fos” value (c-fos) is reported as “significantly upregulate”. For the same molecule, the “endothelial cell tube formation” value (HUVEC-CS cells) was “accelerate”, the “wound healing rate vs vehicle control in STZ-induced diabetic mice” value [4] was “healed at a significantly faster rate starting from day 4 post-injury” and the HaCaT cell migration (HaCaT cells [6]) was “accelerate”. The “time of incisor eruption in newborn mice” value (newborn ICR mice) was 100 h.

In the case of “NCESGTSCIPGAQHNCCSGVCVPIVTIFYGVCY (listed as Achyranthes bidentata) [aB1, reference compound]”, the “HaCaT cell proliferation, concentration up to which not active” value (HaCaT cells [1]; negative control) is reported as > 10 µM.
